From publication PMC9037210, “Novel 3-(6-methylpyridin-2-yl)coumarin-based chalcones as selective inhibitors of cancer-related carbonic anhydrases IX and XII endowed with anti-proliferative activity” (Journal of Enzyme Inhibition and Medicinal Chemistry, 2022)

What was measured:
NCI-H460 = experiment: NCI single (10 µM) dose SRB screening, NCI-H460; type: cell-based, human; conditions: 10 µM single dose, NCI-H460, NSC lung cancer
Description: (§1) Following NCI protocol, sixteen MPCs were screened for their potential in vitro anticancer effects against human 59 cancer cell panels including prostate, leukaemia melanoma, colon, breast, CNS, renal, NSCLC, and ovarian cancers by National Cancer Institute (USA)[30].
(§2) The antiproliferative activities of MPC 3 and MPCs 5a–o were first evaluated in a 10 µM dose assay, with SRB assay used to determine cell survival and proliferation. […] The results of the cell growth inhibitory activities for MPCs 5g and 5l towards the different treated tumour cell lines were presented as GI% and presented in Table 3.
(§3) The anticancer test was conducted using the methods of the Drug Evaluation Branch, National Cancer Institute, Bethesda, MD, using 59 human tumour cell lines derived from nine human tissues. The GI50, TGI, and LC50 dose-response parameters were calculated for each medication.

HOP-92 = experiment: NCI single (10 µM) dose SRB screening, HOP-92; type: cell-based, human; conditions: 10 µM single dose, HOP-92, NSC lung cancer
Description: as §1, §2, §3

HCT-116 = experiment: NCI single (10 µM) dose SRB screening, HCT-116; type: cell-based, human; conditions: 10 µM single dose, HCT-116, Colon cancer
Description: as §1, §2, §3

SNB-75 = experiment: NCI single (10 µM) dose SRB screening, SNB-75; type: cell-based, human; conditions: 10 µM single dose, SNB-75, CNS cancer
Description: as §1, §2, §3

MALME-3M = experiment: NCI single (10 µM) dose SRB screening, MALME-3M; type: cell-based, human; conditions: 10 µM single dose, Melanoma
Description: as §1, §2, §3

MCF7 = experiment: NCI single (10 µM) dose SRB screening, MCF7; type: cell-based, human; conditions: 10 µM single dose, MCF7, Breast cancer
Description: as §1, §2, §3

RXF 393 = experiment: NCI single (10 µM) dose SRB screening, RXF 393; type: cell-based, human; conditions: 10 µM single dose, RXF 393, Renal cancer
Description: as §1, §2, §3

M14 = experiment: NCI single (10 µM) dose SRB screening, M14; type: cell-based, human; conditions: 10 µM single dose, M14, Melanoma
Description: as §1, §2, §3

HT29 = experiment: NCI single (10 µM) dose SRB screening, HT29; type: cell-based, human; conditions: 10 µM single dose, HT29, Colon cancer
Description: as §1, §2, §3

SK-MEL-5 = experiment: NCI single (10 µM) dose SRB screening, SK-MEL-5; type: cell-based, human; conditions: 10 µM single dose, SK-MEL-5, Melanoma
Description: as §1, §2, §3

HCC-2998 = experiment: NCI single (10 µM) dose SRB screening, HCC-2998; type: cell-based, human; conditions: 10 µM single dose, HCC-2998, Colon cancer
Description: as §1, §2, §3

DU-145 = experiment: NCI single (10 µM) dose SRB screening, DU-145; type: cell-based, human; conditions: 10 µM single dose, DU-145, Prostate cancer
Description: as §1, §2, §3

SN 12 C = experiment: NCI single (10 µM) dose SRB screening, SN 12 C; type: cell-based, human; conditions: 10 µM single dose, Renal cancer
Description: as §1, §2, §3

SF-295 = experiment: NCI single (10 µM) dose SRB screening, SF-295; type: cell-based, human; conditions: 10 µM single dose, SF-295, CNS cancer
Description: as §1, §2, §3

UACC-62 = experiment: NCI single (10 µM) dose SRB screening, UACC-62; type: cell-based, human; conditions: 10 µM single dose, UACC-62, Melanoma
Description: as §1, §2, §3

MDA-MB-231 = experiment: NCI single (10 µM) dose SRB screening, MDA-MB-231; type: cell-based, human; conditions: 10 µM single dose, MDA-MB-231, Breast cancer
Description: as §1, §2, §3

A549/ATCC = experiment: NCI single (10 µM) dose SRB screening, A549/ATCC; type: cell-based, human; conditions: 10 µM single dose, NSC lung cancer
Description: as §1, §2, §3

HL-60(TB) = experiment: NCI single (10 µM) dose SRB screening, HL-60(TB); type: cell-based, human; conditions: 10 µM single dose, Leukaemia
Description: as §1, §2, §3

hCA II = biological target: T1, hCA II (Homo sapiens, UniProt P00918); experiment: stopped-flow CO2 hydrase assay, hCA II; type: biochemical; conditions: incubation time of 6 h, mean of three assays, read-out: KI CA II
T1 construct: made in house
Description: The newly synthesised MPCs (3 and 5a–o) were assessed for their CA inhibition activity employing the stopped-flow CO2 hydrase assay[29] for constitutional hCA (I/II) isoforms and cancer-linked hCA (IX/XII) isoforms.
The CA inhibition activity for the herein reported MPC derivatives was evaluated against the hCA isoforms I, II, IX, and XII using stopped-flow CO2 hydrase test[7]^,[33–36] (see the Supplementary Material).
Carbonic anhydrase inhibition assay
The carbonic anhydrase catalyzed CO2 hydration actions for all coumarin-based […]
Photophysics stopped-flow. The enzymes are recombinant proteins prepared in our lab. Phenol red (at a concentration of 0.2 mM) has been used as indicator, working at […]
mM Na2SO4 (for maintaining constant the ionic strength), following the initial rates of the CA-catalyzed CO2 hydration reaction for a period of 10-100 s. The CO2 concentrations ranged from 1.7 to 17 mM for the determination of the kinetic parameters and inhibition constants. For each inhibitor at least six traces of the initial 5-10% of the reaction have been used for determining the initial velocity. The uncatalyzed rates were determined in the same manner and subtracted from the total observed rates. Stock solutions of inhibitor (0.1 mM) were prepared in distilled-deionized water and dilutions up to 0.01 nM were done thereafter with the assay buffer. Inhibitor and enzyme solutions were preincubated together for 6 hrs. at room temperature prior to assay, in order to allow for the formation of the E-I complex. The inhibition constants were obtained by non-linear least-squares methods using PRISM 3 and the Cheng-Prusoff equation, and represent the mean from at least three different

HOP-62 = experiment: NCI single (10 µM) dose SRB screening, HOP-62; type: cell-based, human; conditions: 10 µM single dose, HOP-62, NSC lung cancer
Description: as §1, §2, §3

COLO 205 = experiment: NCI single (10 µM) dose SRB screening, COLO 205; type: cell-based, human; conditions: 10 µM single dose, COLO 205, Colon cancer
Description: as §1, §2, §3

CAKI-1 = experiment: NCI single (10 µM) dose SRB screening, CAKI-1; type: cell-based, human; conditions: 10 µM single dose, CAKI-1, Renal cancer
Description: as §1, §2, §3

MOLT-4 = experiment: NCI single (10 µM) dose SRB screening, MOLT-4; type: cell-based, human; conditions: 10 µM single dose, MOLT-4, Leukaemia
Description: as §1, §2, §3

OVCAR-3 = experiment: NCI single (10 µM) dose SRB screening, OVCAR-3; type: cell-based, human; conditions: 10 µM single dose, OVCAR-3, Ovarian cancer
Description: as §1, §2, §3

U251 = experiment: NCI single (10 µM) dose SRB screening, U251; type: cell-based, human; conditions: 10 µM single dose, U251, CNS cancer
Description: as §1, §2, §3

K-562 = experiment: NCI single (10 µM) dose SRB screening, K-562; type: cell-based, human; conditions: 10 µM single dose, K-562, Leukaemia
Description: as §1, §2, §3

SK-MEL-28 = experiment: NCI single (10 µM) dose SRB screening, SK-MEL-28; type: cell-based, human; conditions: 10 µM single dose, SK-MEL-28, Melanoma
Description: as §1, §2, §3

OVCAR-5 = experiment: NCI single (10 µM) dose SRB screening, OVCAR-5; type: cell-based, human; conditions: 10 µM single dose, OVCAR-5, Ovarian cancer
Description: as §1, §2, §3

Cc1nc(-c2cc3ccccc3oc2=O)ccc1C(=O)/C=C/c1ccccn1 [Compound 5l, 3-(6-Methyl-5-[(2E)-3-(pyridin-2-yl)prop-2-enoyl]pyridin-2-yl)-2H-chromen-2-one]
GI % (NCI-H460): 58%
GI % (HOP-92): – (Only GI % more than 20% are displayed.)
GI % (HCT-116): 121%
GI % (SNB-75): 43%
GI % (MALME-3M): – (Only GI % more than 20% are displayed.)
GI % (MCF7): 91%
GI % (RXF 393): 67%
GI % (M14): – (Only GI % more than 20% are displayed.)
GI % (HT29): 97%
GI % (SK-MEL-5): – (Only GI % more than 20% are displayed.)
GI % (HCC-2998): 33%
GI % (DU-145): 52%
GI % (SN 12 C): 52%
GI % (SF-295): 28%
GI % (UACC-62): 28%
GI % (MDA-MB-231): 87%
GI % (A549/ATCC): 33%
GI % (HL-60(TB)): 67%
Ki (hCA II): > 100 µM
GI % (HOP-62): – (Only GI % more than 20% are displayed.)
GI % (COLO 205): – (Only GI % more than 20% are displayed.)
GI % (CAKI-1): 39%
GI % (MOLT-4): 72%
GI % (OVCAR-3): 53%
GI % (U251): 92%
GI % (K-562): 92%
GI % (SK-MEL-28): – (Only GI % more than 20% are displayed.)
GI % (OVCAR-5): 39%

Cc1nc(-c2cc3ccccc3oc2=O)ccc1C(=O)/C=C/c1ccc(N2CCOCC2)cc1 [Compound 5g, 3-(6-Methyl-5-[(2E)-3-[4-(morpholin-4-yl)phenyl]prop-2-enoyl]pyridin-2-yl)-2H-chromen-2-one]
GI % (NCI-H460): – (Only GI % more than 20% are displayed.)
GI % (HOP-92): – (Only GI % more than 20% are displayed.)
GI % (HCT-116): – (Only GI % more than 20% are displayed.)
GI % (SNB-75): 41%
GI % (MALME-3M): 42%
GI % (MCF7): 48%
GI % (RXF 393): – (Only GI % more than 20% are displayed.)
GI % (M14): 54%
GI % (HT29): – (Only GI % more than 20% are displayed.)
GI % (SK-MEL-5): 28%
GI % (HCC-2998): – (Only GI % more than 20% are displayed.)
GI % (DU-145): – (Only GI % more than 20% are displayed.)
GI % (SN 12 C): – (Only GI % more than 20% are displayed.)
GI % (SF-295): 33%
GI % (UACC-62): 47%
GI % (MDA-MB-231): 45%
GI % (A549/ATCC): – (Only GI % more than 20% are displayed.)
GI % (HL-60(TB)): 61%
Ki (hCA II): > 100 µM
GI % (HOP-62): – (Only GI % more than 20% are displayed.)
GI % (COLO 205): – (Only GI % more than 20% are displayed.)
GI % (CAKI-1): 34%
GI % (MOLT-4): 33%
GI % (OVCAR-3): – (Only GI % more than 20% are displayed.)
GI % (U251): – (Only GI % more than 20% are displayed.)
GI % (K-562): 62%
GI % (SK-MEL-28): 27%
GI % (OVCAR-5): – (Only GI % more than 20% are displayed.)
